{"source": "patent US12440493B2", "about": "“Combination therapy for treating cancer comprising substituted piperazines” (Eli Lilly and Company, priority 2020, dated 2025)", "test_system": "IDH1(R132H) primary human AML cells", "assay": "AML clearance in peripheral blood (flow cytometry, % hCD33+hCD45+ of total white cells), human AML PDx models in NSG mice", "assay_type": "in vivo", "settings": "for AML clearance (% hCD33 + hCD45+ (of total white cells)): QD, PO, each value one animal", "protocol": "Compounds and Formulation. For in vivo studies, each test article is prepared at an appropriate concentration with vehicle. […] Compound A is prepared fresh at the appropriate concentrations with vehicle every 7 days and stored at 4° C. between doses. […] Cytarabine is prepared fresh weekly by dilution with sterile saline from stock solution of Cytarabine (injection 20 mg/mL, (Pfizer injectables')). Azacitidine (Sigma, Lot #MKBR7212) is formulated in sterile water and is prepared fresh daily immediately before dosing. In vivo human AML PDx models. […] Two models are used in the studies: […] As needed, splenocytes from tumor-bearing mice are used to propagate and expand the models, as described. Each test article is prepared as described above at an appropriate concentration with vehicle to give animals the doses tested in this study at a dosing volume of 10 μL/gram body weight. Mice receiving Compound A (PO, QD) are treated at the indicated doses for the duration of the study. The combination agents are dosed as follows: […] Treated mice are assessed in comparison to vehicle treated and naïve (non-tumor bearing) control mice. Body weight is recorded twice per week. […] AML PDx model propagation. […] Spleens are processed and splenocytes isolated as described below. Two hundred μL per subject of the splenocyte prep is injected IV (intravenous, tail vein) into recipient NSG mice. […] Once engraftment is confirmed, the mice are monitored biweekly until ready to be put on study. […] Submandibular blood is collected. Spleen/Splenocyte Processing and Prep. After excision, a spleen is weighed, and […] is placed in a standard sterile 15 mL polypropylene conical tube containing PBS, and placed on ice. […] The spleen is placed in ice cold sterile PBS in a 15 mL collection tube. The spleen is removed from the collection tube and placed in a 100 micron 50 mL conical tube cell strainer (BD Falcon #352360). The spleen is processed by gentle rubbing of the spleen tissue against the surface of the cell strainer with the end of a 5 mL syringe plunger in a circular motion. The surface of the strainer is rinsed with 10 mL room temperature sterile DPBS (HyClone SH30028) 3 times during the process. […] The cell pellet is collected by centrifugation (300×g) and washed three times with 30 mL sterile DPBS. The cells are counted and resuspended in DPBS at the desired implant concentration. Bone Marrow Collection. […] Flow cytometry analysis of human white cells. Submandibular blood samples from in vivo studies are collected. Fluor-conjugated antibody stains are added according to the manufacturer's instructions (anti-human CD33-PE (clone WM53, BD Cat #555450), anti-human CD14-APC (clone MφpP9, BD Cat #340436), anti-human CD15-V450 (clone HI98, BD Cat #561584), anti-human CD117-BV421 (clone YB5.B8, BD Cat #562434), anti-human […]7 (clone ICRF44, BD Cat #557754), anti-human […]7 (clone HI30, BD Cat #557748), and anti-human CD3-FITC (clone SK7, BD Cat #340542)). The samples are incubated for 30 minutes at room temperature, protected from light. After the incubation, 1.5 mL 1×BD Lyse/Fix (37° C., (BD #558049)) is added to each sample and incubated for 12 minutes at room temperature. The tubes are centrifuged at 300×g for 7 minutes. BD Lyse/Fix solution is aspirated and the cell pellet washed with stain/wash buffer 3 times (1 wash step consisted of: pellet resuspended in 3 mL stain/wash buffer, centrifuged at 300×g, aspirated wash). Fixed cells are then resuspended in 300 to 400 μL stain/wash buffer. Samples are analyzed on a Becton Dickinson FACSVerse Flow cytometer (Cat #651155 Serial #Z6511550447) using standard flow cytometry principles and techniques. Samples are analyzed on the same day as they are stained and fixed. Population gating and data analysis of percent population are performed in the FACSuite software on the FACSVerse cytometer. Percent population values from the data analysis are plotted in Graphpad Prism or in JMP13. […]", "note": "Where “and” joins values, the source holds several entries; their conditions need not be identical. Equal values may be shown once.", "data": [{"compound": "C=CC(=O)N1CCN([C@@H](CC2CC2)c2ccc([C@H](C)Nc3ncc4c(n3)N(CC)C(=O)OC4)cc2)CC1", "note": "[Compound A, 7-[[(1S)-1-[4-[(1S)-2-cyclopropyl-1-(4-prop-2-enoylpiperazin-1-yl)ethyl]phenyl]ethyl]amino]-1-ethyl-4H-pyrimido[4,5-d][1,3]oxazin-2-one]", "values": [{"measurement": "AML clearance (% hCD33 + hCD45+ (of total white cells))", "setting": "Treatment day 2, 3.3 mg/kg Compound A, Table 2A, 3.3 mg/kg", "value": "17.05% and 19.48% and 22.89% and 20.16% and 18.6% and 25.83% and 19.49%"}, {"measurement": "AML clearance (% hCD33 + hCD45+ (of total white cells))", "setting": "Treatment day 7, 1 mg/kg Compound A, 1 mg/kg", "value": "12.21% and 7.04% and 6.97% and 8.4% and 10.28%"}, {"measurement": "AML clearance (% hCD33 + hCD45+ (of total white cells))", "setting": "Treatment day 7, 10 mg/kg Compound A, 10 mg/kg", "value": "4.04% and 3.35% and 6.37% and 4.2% and 2.73%"}, {"measurement": "AML clearance (% hCD33 + hCD45+ (of total white cells))", "setting": "Treatment day 15, 3.3 mg/kg Compound A, Table 2A, 3.3 mg/kg", "value": "35.68% and 39.36% and 39.41% and 22.01% and 44.8% and 40.7% and 29.24%"}, {"measurement": "AML clearance (% hCD33 + hCD45+ (of total white cells))", "setting": "Treatment day 18, 3.3 mg/kg Compound A, 3.3 mg/kg", "value": "20.86% and 33.61% and 41.83% and 32.38% and 38.57% and 42.91% and 20.85%"}, {"measurement": "AML clearance (% hCD33 + hCD45+ (of total white cells))", "setting": "Treatment day 23, 1 mg/kg Compound A, 1 mg/kg", "value": "16.54% and 9.05% and 15.88% and 9.45%"}, {"measurement": "AML clearance (% hCD33 + hCD45+ (of total white cells))", "setting": "Treatment day 23, 10 mg/kg Compound A, 10 mg/kg", "value": "4.97% and 1.6% and 8.52% and 2.88% and 2.41%"}, {"measurement": "AML clearance (% hCD33 + hCD45+ (of total white cells))", "setting": "Treatment day 28, 3.3 mg/kg Compound A, Table 2A, 3.3 mg/kg", "value": "32.12% and 43.09% and 32.66% and 35.22% and 35% and 33.35%"}, {"measurement": "AML clearance (% hCD33 + hCD45+ (of total white cells))", "setting": "Treatment day 34, 3.3 mg/kg Compound A, 3.3 mg/kg", "value": "27.18% and 34.09% and 34.27% and 48.87% and 20.33% and 33.11% and 34.28%"}, {"measurement": "AML clearance (% hCD33 + hCD45+ (of total white cells))", "setting": "Treatment day 36, 1 mg/kg Compound A, 1 mg/kg", "value": "16.96% and 20.94% and 15.66% and 13.65%"}, {"measurement": "AML clearance (% hCD33 + hCD45+ (of total white cells))", "setting": "Treatment day 36, 10 mg/kg Compound A, 10 mg/kg", "value": "4.67% and 3.89% and 4.32% and 2.11% and 2.39%"}, {"measurement": "AML clearance (% hCD33 + hCD45+ (of total white cells))", "setting": "Treatment day 43, 3.3 mg/kg Compound A, Table 2A, 3.3 mg/kg", "value": "59.89% and 65.62% and 61.99% and 47.87% and 52.96% and 62.25% and 27.91%"}, {"measurement": "AML clearance (% hCD33 + hCD45+ (of total white cells))", "setting": "Treatment day 47, 3.3 mg/kg Compound A, 3.3 mg/kg", "value": "64.21% and 29.4% and 31.38% and 63.41% and 45.19% and 20.69% and 37.68%"}, {"measurement": "AML clearance (% hCD33 + hCD45+ (of total white cells))", "setting": "Treatment day 50, 1 mg/kg Compound A, 1 mg/kg", "value": "26.13% and 48.71% and 41.07% and 42.54%"}, {"measurement": "AML clearance (% hCD33 + hCD45+ (of total white cells))", "setting": "Treatment day 50, 10 mg/kg Compound A, 10 mg/kg", "value": "2.9% and 3.66% and 5.08% and 2.11% and 1.55%"}, {"measurement": "AML clearance (% hCD33 + hCD45+ (of total white cells))", "setting": "Treatment day 58, 3.3 mg/kg Compound A, Table 2A, 3.3 mg/kg", "value": "67.45% and 59.45% and 67.73% and 53.95% and 44.7% and 48.88% and 71.52%"}, {"measurement": "AML clearance (% hCD33 + hCD45+ (of total white cells))", "setting": "Treatment day 61, 3.3 mg/kg Compound A, 3.3 mg/kg", "value": "68.85% and 72.89% and 47.42% and 56.98% and 82.54% and 38.58% and 74.64%"}, {"measurement": "AML clearance (% hCD33 + hCD45+ (of total white cells))", "setting": "Treatment day 64, 1 mg/kg Compound A, 1 mg/kg", "value": "51.67% and 57.72% and 55.61% and 45.53%"}, {"measurement": "AML clearance (% hCD33 + hCD45+ (of total white cells))", "setting": "Treatment day 64, 10 mg/kg Compound A, 10 mg/kg", "value": "0.94% and 1.66% and 1.11% and 1.55% and 0.62%"}, {"measurement": "AML clearance (% hCD33 + hCD45+ (of total white cells))", "setting": "Treatment day 75, 3.3 mg/kg Compound A, 3.3 mg/kg", "value": "67.91% and 54.26% and 56.55% and 90.69% and 45.05% and 68.73%"}, {"measurement": "AML clearance (% hCD33 + hCD45+ (of total white cells))", "setting": "Treatment day 77, 3.3 mg/kg Compound A, Table 2A, 3.3 mg/kg", "value": "74.81% and 79.27% and 43.75% and 60.02% and 75.38% and 59.74%"}, {"measurement": "AML clearance (% hCD33 + hCD45+ (of total white cells))", "setting": "Treatment day 78, 1 mg/kg Compound A, 1 mg/kg", "value": "65.17% and 75.95% and 68.32% and 56.56%"}, {"measurement": "AML clearance (% hCD33 + hCD45+ (of total white cells))", "setting": "Treatment day 78, 10 mg/kg Compound A, 10 mg/kg", "value": "0.89% and 1.72% and 0.4% and 0.45% and 0.46%"}, {"measurement": "AML clearance (% hCD33 + hCD45+ (of total white cells))", "setting": "Treatment day 84, 1 mg/kg Compound A, 1 mg/kg", "value": "98.27% and 84.52%"}, {"measurement": "AML clearance (% hCD33 + hCD45+ (of total white cells))", "setting": "Treatment day 89, 3.3 mg/kg Compound A, 3.3 mg/kg", "value": "66.75% and 67.29% and 63.26% and 92.41% and 41.16% and 62.6%"}, {"measurement": "AML clearance (% hCD33 + hCD45+ (of total white cells))", "setting": "Treatment day 92, 10 mg/kg Compound A, 10 mg/kg", "value": "0.8% and 2.36% and 0.4% and 0.19% and 0.32%"}, {"measurement": "AML clearance (% hCD33 + hCD45+ (of total white cells))", "setting": "Treatment day 98, 3.3 mg/kg Compound A, Table 2A, 3.3 mg/kg", "value": "55.63% and 73.72% and 73.42% and 85.43% and 64.03%"}, {"measurement": "AML clearance (% hCD33 + hCD45+ (of total white cells))", "setting": "Treatment day −3, 3.3 mg/kg Compound A, 3.3 mg/kg", "value": "17.5% and 23.88% and 24.18% and 19.46% and 14.94% and 20.14%"}, {"measurement": "AML clearance (% hCD33 + hCD45+ (of total white cells))", "setting": "Treatment day −8, 1 mg/kg Compound A, 1 mg/kg", "value": "6.97% and 3.7% and 3.2% and 7.02% and 11.07%"}, {"measurement": "AML clearance (% hCD33 + hCD45+ (of total white cells))", "setting": "Treatment day −8, 10 mg/kg Compound A, 10 mg/kg", "value": "2.43% and 7.61% and 4.1% and 6.27% and 6.53%"}, {"measurement": "AML clearance (% hCD33 + hCD45+ (of total white cells))", "setting": "Treatment day −19, 3.3 mg/kg Compound A, Table 2A, 3.3 mg/kg", "value": "6.86% and 3.77% and 4.41% and 2.93% and 5.26% and 4.84% and 2.39%"}, {"measurement": "% peripheral blood AML cells (treatment group value)", "setting": "day 43, group B: Compound A (3.3 mg/kg), azacitidine study, vehicle 71%", "value": 52, "unit": "%"}, {"measurement": "% peripheral blood AML cells (treatment group value)", "setting": "day 47, group B: Compound A (3.3 mg/kg), cytarabine study, vehicle 86%", "value": 39, "unit": "%"}, {"measurement": "% peripheral blood AML cells (treatment group value)", "setting": "day 50, group B: 1 mg Compound A, vehicle 32%", "value": 37, "unit": "%"}, {"measurement": "% peripheral blood AML cells (treatment group value)", "setting": "day 50, group C: 10 mg Compound A, vehicle 32%", "value": 2.8, "unit": "%"}]}]}
